Marks after values point to notes of the source that are not given here.
How the values were obtained:
Type in all cases: cell-based, Wister rats
[1] = tested on: reversed canal sac of jejunum; assay: Calcium absorption in reversed canal sac, jejunum
Description: (§1) Experiment 1 confirmed that cyclic tetrasaccharide promotes mineral absorption in alimentary canal of rat concretely in intestinum ileum or its upper alimentary canal. The following experiment was carried out in order to determine a part of alimentary canal, cyclic tetrasaccharide acts on to promote mineral absorption. Twenty heads of Wister rats (nine week aged male, commercialized by Charlesriver Corporation, Kanagawa, Japan) were bred for three days with a usual solid feed for rats. Under the anesthetization with ether, alimentary canal was taken out from each rat which had been bled from a jugular vein and treated by abdominal operation. Each alimentary canal was divided into jejunum, intestinum ileum and colon/rectum and washed with physiological saline to remove the content. The resulting jejunum specimen, intestinum ileum specimen or colon/rectum specimen was cut off to prepare each midsection sized with about 10 cm in length. The resulting midsection of each specimen was reversed using a glass rod and immersed in a physiological saline babbled with gas consisting of 95% oxygen and 5% carbon dioxide. The resultant was cut into pieces sized with 5 cm in length and each piece was tied with a suture thread at both ends to prepare a reversed canal sac, and injected with about 0.5 ml of an internal sac solution containing 30 mM Tris-HCl buffer (pH7.4), 125 mM sodium chloride, 4 mM potassium chloride, 10 mM glucose and 1.25 mM calcium chloride (dihydrate) with a syringe and weighed. The resulting sac was immersed in an external sac solution (being bubbled with the gas consisting of 95% oxygen and 5% carbon dioxide) containing 50 mM, 100 mM or 200 mM of the same cyclic tetrasaccharide to Experiment 1 in the above solution containing 30 mM Tris-HCl buffer (pH7.4), 125 mM sodium chloride, 4 mM potassium chloride, 10 mM glucose and 1.25 mM calcium chloride (dihydrate). At 15 or 30 minutes after the immersion, the reversed canal sac was taken out from the solution and washed with distilled water. The internal sac solution was collected from the resulting sac and admixed with distilled water to give a final volume of 25 ml. The resulting solution was subjected to a calorimetric measurement of calcium content using “CALCIUM TEST C WAKO™” (commercialized by Wako Pure Chemicals Corporation, Osaka, Japan). As a negative control, an external sac solution without saccharides. As a positive control, an external sac solution containing 200 mM maltitol, reported to have the effect on promoting mineral absorption though intestinal canal, instead of cyclic tetrasaccharide were prepared and carried out in the same manner. Speed of calcium absorption (nmol/min·cm^2) and its relative values defining the value of negative control as 100 were calculated.

[2] = tested on: reversed canal sac of colon/rectum; assay: Calcium absorption in reversed canal sac, colon/rectum
Description: as §1

[3] = tested on: reversed canal sac of intestinum ileum; assay: Calcium absorption in reversed canal sac, intestinum ileum
Description: as §1

[4] = 200 mM saccharide in external sac solution

For `OC[C@@H](O)[C@@H](O[C@H]1O[C@H](CO)[C@@H](O)[C@H](O)[C@H]1O)[C@H](O)[C@@H](O)CO` [Maltitol, maltitol, reference compound], the “Absorption speed of calcium in alimentary canal sac, Jejunum” value [1, 4] was 27.9 * nmol/min · cm^2, the “Relative value of calcium absorption speed (control = 100), Jejunum” value [1, 4] was “(131)” and the “promotion of calcium absorption in jejunum” value ([1]; reversed sac) was “strongly promoted”. The “Absorption speed of calcium in alimentary canal sac, Colon/Rectum” value [2, 4] was 22.3 * nmol/min · cm^2, the “Relative value of calcium absorption speed (control = 100), Colon/Rectum” value [2, 4] was “(168)” and the “promotion of calcium absorption in colon/rectum” value ([2]; reversed sac) was “strongly promoted”. The “Absorption speed of calcium in alimentary canal sac, Intestinum ileum” value [3, 4] was 40.5 * nmol/min · cm^2, the “Relative value of calcium absorption speed (control = 100), Intestinum ileum” value [3, 4] was “(150)” and the “promotion of calcium absorption in intestinum ileum” value ([3]; reversed sac) was “strongly promoted”.

Reference: patent publication US20080113938A1, “ACCELERATOR FOR MINERAL ABSORPTION AND USE THEREOF” (KABUSHIKI KAISHA HAYASHIBARA SEIBUTSU KAGAKU KENKYUJO, priority 2003, published 2008)
